Patent US20120245184A1 (Aderans Research Institute, Inc., priority 2006, published 2012)
Counter-ions that a name gives are not always drawn.

Assays:
sonic hedgehog pathway [1] = assay: Hedgehog reporter assay (gli-luciferase) in TM3 cells; format: cell-based, mouse; conditions: TM3 mouse Leydig cells, gli-luciferase reporter; read-out: TM3 Avg. EC50
Description: (§1) Mouse (TM3: mouse Leydig cells; S12: mouse embryonic mesenchymal cells) and human (Daoy: human medulloblastoma cell; HepM: human embryonic palatal mesenchymal cell) cell lines are used to screen small molecules for their ability to modulate the activity of the sonic hedgehog pathway (Table 1, Table 2, and Table 3). Stable hedgehog pathway reporter cell lines are established by specific antibiotic selection following transfection of a reporter plasmid containing a luciferase gene located directly downstream from the gli promoter. Consequently, any observable changes in cellular luciferase activity may be attributed to changes in sonic hedgehog pathway activity in mouse and human cells, respectively, since gli is the major by-product of this pathway. To calculate activity, we generate an eleven point dose curve for each compound using 1:3 dilutions in 96 well assay plates. Each plate tested also contains low and high control to establish maximal pathway activation so to establish/compare a percentage activation of each tested compound (AMAX) on respective plates.
(§2) Stable hedgehog pathway reporter cell lines are established following specific antibiotic selection following transfection of a reporter plasmid
(§3) In short, typically cells are plated in MicroTiter-plates at 10,000-20,000 cells per well, in growth media (containing 10%-20% FBS). After 48-72 hrs (HGL and DGL respectively) the media in the assay plates is switched to low-serum containing media (0.5% FBS). At that time compounds are added (at 1-5 μM) to the assay plates, in the presence or absence of hedgehog protein (octyl-modified version; 1-5 ng/ml). After another 24 hrs of incubation, the media from the assay plates is discarded and replaced with luciferase assay-mix. Subsequently, plates are incubated at RT for ˜15-30 mins and then read in a luminometer. [note: addition of the Hedgehog protein, although not critical, will sensitize the assay allowing the identification of weak actives].

sonic hedgehog pathway [2] = assay: Human hedgehog reporter assay Daoy-GliLuc (DGL); format: cell-based
Description: as §1, §2, §3

sonic hedgehog pathway [3] = assay: Human hedgehog reporter assay HEPM-GliLuc (HGL); format: cell-based; conditions: HepM human embryonic palatal mesenchymal cells, gli-luciferase reporter; read-out: HEPM Avg. EC50
Description: as §1, §2, §3

sonic hedgehog pathway [4] = assay: Hedgehog reporter assay (gli-luciferase) in S12 cells; format: cell-based; conditions: S12 mouse embryonic mesenchymal cells, read-out: Mouse S12 Avg. EC50
Description: as §1, with “respective plates. Also we calculate EC50 values, or a concentration where the pathway will be exactly 50% activated, for each tested compound to determine potency. In these cell lines, compounds that register >20% AMAX values are considered active.” for “respective plates.”
as §2, §3

[5] = Daoy human medulloblastoma cells, gli-luciferase reporter, read-out: Daoy Avg. EC50
[6] = Daoy human medulloblastoma cells, gli-luciferase reporter, read-out: Human Daoy (Gli-Luc) Avg. EC50

SMILES	EC50 (sonic hedgehog pathway [1]) [nM]	EC50 (sonic hedgehog pathway [2]; [5]) [nM]	EC50 (sonic hedgehog pathway [3]) [nM]	EC50 (sonic hedgehog pathway [4]) [nM]	EC50 (sonic hedgehog pathway [2]; [6]) [nM]	EC50 (sonic hedgehog pathway [2]; Homo sapiens, Daoy, read-out: Human Daoy (Gli-Luc) Avg. EC50 (nM)) [nM]
CN[C@H]1CC[C@@H](N(Cc2cc(-c3ccnc(C)c3)ccc2OC)C(=O)C2=C(Cl)c3c(F)ccc(C)c3C2)CC1 [Compound 345, 3-Chloro-4,7-difluoro-benzo[b]thiophene-2-carboxylic acid[2-methoxy-5-(2-methyl-pyridin-4-yl)-benzyl]-(4-methylamino-cyclohexyl)-amide dihydrochloride]	< 50	< 50	< 50			
CNC1CCC(N(Cc2cc(-c3ccc(N(C)C=O)cc3)ccc2OC)C(=O)c2sc3cccc(F)c3c2Cl)CC1 (stereo not shown) [Compound 347, 3-Chloro-4-fluoro-benzo[b]thiophene-2-carboxylic acid[4′-(formyl-methyl-amino)-4-methoxy-biphenyl-3-ylmethyl]-(4-methylamino-cyclohexyl)-amide trifluoroacetate]	< 50	< 50	< 50			
CNC1CCC(N(Cc2cc(-c3ccc(C(=O)C(F)(F)F)cc3)ccc2OC)C(=O)c2sc3c(F)ccc(F)c3c2Cl)CC1 (stereo not shown) [Compound 349, 3-Chloro-4,7-difluoro-benzo[b]thiophene-2-carboxylic acid[4-methoxy-4′-(2,2,2-trifluoro-acetyl)-biphenyl-3-ylmethyl]-(4-methylamino-cyclohexyl)-amide trifluoroacetate]	< 50	< 50	< 50			
CNC1CCC(N(Cc2cc(-c3cc(C)cc(C)c3)ccc2OC)C(=O)C2=C(Cl)c3c(C)ccc(F)c3C2)CC1 (stereo not shown) [Compound 350, 3-Chloro-4,7-difluoro-benzo[b]thiophene-2-carboxylic acid[5-(2,6-dimethyl-pyridin-4-yl)-2-methoxy-benzyl]-(4-methylamino-cyclohexyl)-amide dihydrochloride]	< 50	< 50	50 to 250			
CNC1CCC(N(Cc2cc(-c3ccc(N)nc3)ccc2OC)C(=O)c2sc3c(F)ccc(F)c3c2Cl)CC1 (stereo not shown) [Compound 352 (R18), 3-Chloro-4,7-difluoro-benzo[b]thiophene-2-carboxylic acid[5-(6-amino-pyridin-3-yl)-2-methoxy-benzyl]-(4-methylamino-cyclohexyl)-amide dihydrochloride]	< 50	< 50	< 50			
CN[C@H]1CC[C@@H](N(Cc2cc(-c3ccnc(N(C)C)c3)ccc2OC)C(=O)c2sc3c(C)ccc(C)c3c2Cl)CC1 [Compound 358, 3-Chloro-4,7-difluoro-benzo[b]thiophene-2-carboxylic acid[5-(2-dimethylamino-pyridin-4-yl)-2-methoxy-benzyl]-(4-methylamino-cyclohexyl)-amide dihydrochloride]	< 50	< 50	< 50			
CNC1CCC(N(Cc2cc(-c3ccc(CS(C)(=O)=O)cc3)ccc2OC)C(=O)c2sc3c(F)ccc(F)c3c2Cl)CC1 (stereo not shown) [Compound 369, 3-Chloro-4,7-difluoro-benzo[b]thiophene-2-carboxylic acid(4′-methanesulfonylmethyl-4-methoxy-biphenyl-3-ylmethyl)-(4-methylamino-cyclohexyl)-amide hydrochloride]				< 50	< 50	
CNC1CCC(N(Cc2cc(-c3ccc(NS(C)(=O)=O)cc3)ccc2OC)C(=O)c2sc3c(F)ccc(F)c3c2Cl)CC1 (stereo not shown) [Compound 370, 3-Chloro-4,7-difluoro-benzo[b]thiophene-2-carboxylic acid (4′-methanesulfonylamino-4-methoxy-biphenyl-3-ylmethyl)-(4-methylamino-cyclohexyl)-amide hydrochloride]				< 50		< 50
CNC1CCC(N(Cc2cc(-c3ccc(N(C)S(C)(=O)=O)cc3)ccc2OC)C(=O)c2sc3c(F)ccc(F)c3c2Cl)CC1 (stereo not shown) [Compound 371, 3-Chloro-4,7-difluoro-benzo[b]thiophene-2-carboxylic acid[4′-(methanesulfonyl-methyl-amino)-4-methoxy-biphenyl-3-ylmethyl]-(4-methylamino-cyclohexyl)-amide hydrochloride]				< 50	< 50	
CNC1CCC(N(Cc2cc(-c3cc[n+]([O-])cc3)ccc2OC)C(=O)c2sc3c(F)ccc(F)c3c2Cl)CC1 (stereo not shown) [Compound 374, 4-(3-((3-chloro-4,7-difluoro-N-((1s,4s)-4-(methylamino)cyclohexyl)benzo[b]thiophene-2-carboxamido)methyl)-4-methoxyphenyl)pyridine 1-oxide]				< 50	< 50	
CN[C@H]1CC[C@H](N(Cc2cc(-c3cccnc3F)ccc2OC)C(=O)c2sc3c(F)ccc(F)c3c2Cl)CC1 [Compound 378, 3-Chloro-4,7-difluoro-benzo[b]thiophene-2-carboxylic acid[5-(2-fluoro-pyridin-3-yl)-2-methoxy-benzyl]-(4-methylamino-cyclohexyl)-amide]				< 50	< 50	
CN[C@H]1CC[C@H](N(Cc2cc(-c3ccc(F)nc3)ccc2OC)C(=O)c2sc3c(F)ccc(F)c3c2Cl)CC1 [Compound 379, 3-Chloro-4,7-difluoro-benzo[b]thiophene-2-carboxylic acid[5-(6-fluoro-pyridin-3-yl)-2-methoxy-benzyl]-(4-methylamino-cyclohexyl)-amide]				< 50	< 50	
CN[C@H]1CC[C@H](N(Cc2cc(-c3cncc(F)c3)ccc2OC)C(=O)c2sc3c(F)ccc(F)c3c2Cl)CC1 [Compound 380, 3-Chloro-4,7-difluoro-benzo[b]thiophene-2-carboxylic acid[5-(5-fluoro-pyridin-3-yl)-2-methoxy-benzyl]-(4-methylamino-cyclohexyl)-amide]				< 50	< 50	
CN[C@H]1CC[C@H](N(Cc2cc(-c3cccnc3F)ccc2OC)C(=O)c2sc3cccc(F)c3c2Cl)CC1 [Compound 381]				< 50	< 50	
CN[C@H]1CC[C@H](N(Cc2cc(-c3ccc(F)nc3)ccc2OC)C(=O)c2sc3cccc(F)c3c2Cl)CC1 [Compound 382, 3-Chloro-4-fluoro-benzo[b]thiophene-2-carboxylic acid[5-(6-fluoro-pyridin-3-yl)-2-methoxy-benzyl]-(4-methylamino-cyclohexyl)-amide]				< 50	< 50	
CN[C@H]1CC[C@H](N(Cc2cc(-c3cncc(F)c3)ccc2OC)C(=O)c2sc3cccc(F)c3c2Cl)CC1 [Compound 383, 3-chloro-4-fluoro-N-(5-(5-fluoropyridin-3-yl)-2-methoxybenzyl)-N-((1s,4s)-4-(methylamino)cyclohexyl)benzo[b]thiophene-2-carboxamide]				< 50	< 50	
CNC1CCC(N(Cc2cc(-c3ccnc(F)c3)ccc2OC)C(=O)c2sc3c(F)ccc(F)c3c2Cl)CC1 (stereo not shown) [Compound 384, 3-Chloro-4,7-difluoro-benzo[b]thiophene-2-carboxylic acid[5-(2-fluoro-pyridin-4-yl)-2-methoxy-benzyl]-(4-methylamino-cyclohexyl)-amide]				< 50	< 50	
CNC1CCC(N(Cc2cc(-c3ccnc(F)c3)ccc2OC)C(=O)c2sc3cccc(F)c3c2Cl)CC1 (stereo not shown) [Compound 385, 3-Chloro-4-fluoro-benzo[b]thiophene-2-carboxylic acid[5-(2-fluoro-pyridin-4-yl)-2-methoxy-benzyl]-(4-methylamino-cyclohexyl)-amide]				< 50	< 50	
CN[C@H]1CC[C@@H](N(Cc2cc(-c3ccncc3F)ccc2OC)C(=O)c2sc3c(F)ccc(F)c3c2Cl)CC1 [Compound 386, 3-Chloro-4,7-difluoro-benzo[b]thiophene-2-carboxylic acid[5-(3-fluoro-pyridin-4-yl)-2-methoxy-benzyl]-(4-methylamino-cyclohexyl)-amide]				< 50	< 50	
CNC1CCC(N(Cc2cc(-c3ccncc3F)ccc2OC)C(=O)c2sc3cccc(F)c3c2Cl)CC1 (stereo not shown) [Compound 387, 3-Chloro-4-fluoro-benzo[b]thiophene-2-carboxylic acid[5-(3-fluoro-pyridin-4-yl)-2-methoxy-benzyl]-(4-methylamino-cyclohexyl)-amide]				< 50	< 50	
